Reference: the NIST ThermoML archive (doi:10.1016/j.fluid.2009.08.011)

Assay: cn = amount concentration of the nth substance listed, in mol/dm3
Settings: 101 kPa, Liquid, Alternating current cell with electrodes

CCCCn1cc[n+](C)c1.[I-] [1-butyl-3-methylimidazolium iodide] + O
Settings	molar conductivity [S·m2/mol]
298.15 K, c1 = 0.0009058	0.0138
298.15 K, c1 = 0.001366	0.0137
298.15 K, c1 = 0.002017	0.0136
298.15 K, c1 = 0.002809	0.0135
298.15 K, c1 = 0.003715	0.0134
298.15 K, c1 = 0.00495	0.0133
298.15 K, c1 = 0.006082	0.0132
298.15 K, c1 = 0.007529	0.0131
298.15 K, c1 = 0.009093	0.0129
298.15 K, c1 = 0.01105	0.0127
298.15 K, c1 = 0.01306	0.0126
298.15 K, c1 = 0.01489	0.0125
298.15 K, c1 = 0.01706	0.0123
298.15 K, c1 = 0.01978	0.0122
298.15 K, c1 = 0.02281	0.012
308.15 K, c1 = 0.0004602	0.0139
308.15 K, c1 = 0.0008351	0.0138
308.15 K, c1 = 0.001278	0.0137
308.15 K, c1 = 0.001726	0.0135
308.15 K, c1 = 0.002088	0.0135
308.15 K, c1 = 0.00254	0.0133
308.15 K, c1 = 0.003341	0.0132
308.15 K, c1 = 0.004184	0.0131
308.15 K, c1 = 0.005066	0.0129
308.15 K, c1 = 0.006502	0.0127
308.15 K, c1 = 0.007827	0.0126
308.15 K, c1 = 0.009685	0.0124
308.15 K, c1 = 0.01153	0.0122
318.15 K, c1 = 0.0002077	0.0144
318.15 K, c1 = 0.0005721	0.0143
318.15 K, c1 = 0.000962	0.0142
318.15 K, c1 = 0.001339	0.0141
318.15 K, c1 = 0.002111	0.0139
318.15 K, c1 = 0.002755	0.0138
318.15 K, c1 = 0.003581	0.0136
318.15 K, c1 = 0.004395	0.0134
318.15 K, c1 = 0.005399	0.0132
318.15 K, c1 = 0.006692	0.013
318.15 K, c1 = 0.007942	0.0128
318.15 K, c1 = 0.009561	0.0126
318.15 K, c1 = 0.01162	0.0124
328.15 K, c1 = 0.0004059	0.0146
328.15 K, c1 = 0.00074	0.0145
328.15 K, c1 = 0.001116	0.0143
328.15 K, c1 = 0.001865	0.0141
328.15 K, c1 = 0.002626	0.0139
328.15 K, c1 = 0.003374	0.0138
328.15 K, c1 = 0.004072	0.0137
328.15 K, c1 = 0.005214	0.0134
328.15 K, c1 = 0.006444	0.0132
328.15 K, c1 = 0.007599	0.013
328.15 K, c1 = 0.009252	0.0128
328.15 K, c1 = 0.01045	0.0126
328.15 K, c1 = 0.01188	0.0125

CCCCCCn1cc[n+](C)c1.[Br-] [3-hexyl-1-methyl-1H-imidazolium bromide] + O
Settings	molar conductivity [S·m2/mol]
298.15 K, c1 = 0.0004233	0.0104
298.15 K, c1 = 0.0008352	0.0103
298.15 K, c1 = 0.001327	0.0102
298.15 K, c1 = 0.001785	0.0101
298.15 K, c1 = 0.002231	0.0101
298.15 K, c1 = 0.003203	0.00996
298.15 K, c1 = 0.004124	0.00983
298.15 K, c1 = 0.005143	0.00974
298.15 K, c1 = 0.006841	0.00955
298.15 K, c1 = 0.008495	0.00941
298.15 K, c1 = 0.01022	0.00923
298.15 K, c1 = 0.01211	0.00905
298.15 K, c1 = 0.01464	0.0088
308.15 K, c1 = 0.0004492	0.0108
308.15 K, c1 = 0.001027	0.0106
308.15 K, c1 = 0.001581	0.0105
308.15 K, c1 = 0.002065	0.0104
308.15 K, c1 = 0.002724	0.0104
308.15 K, c1 = 0.003914	0.0102
308.15 K, c1 = 0.005116	0.00999
308.15 K, c1 = 0.006411	0.00987
308.15 K, c1 = 0.008535	0.00965
308.15 K, c1 = 0.01052	0.00946
308.15 K, c1 = 0.0126	0.00927
308.15 K, c1 = 0.01458	0.00912
318.15 K, c1 = 0.0004492	0.011
318.15 K, c1 = 0.001027	0.0109
318.15 K, c1 = 0.001581	0.0108
318.15 K, c1 = 0.002065	0.0107
318.15 K, c1 = 0.002724	0.0106
318.15 K, c1 = 0.003914	0.0104
318.15 K, c1 = 0.005116	0.0103
318.15 K, c1 = 0.006411	0.0102
318.15 K, c1 = 0.008535	0.00993
318.15 K, c1 = 0.01052	0.00971
318.15 K, c1 = 0.0126	0.00953
318.15 K, c1 = 0.01458	0.00935
328.15 K, c1 = 0.0005148	0.0114
328.15 K, c1 = 0.001041	0.0113
328.15 K, c1 = 0.001608	0.0111
328.15 K, c1 = 0.002215	0.011
328.15 K, c1 = 0.002695	0.0109
328.15 K, c1 = 0.003725	0.0107
328.15 K, c1 = 0.004772	0.0105
328.15 K, c1 = 0.005836	0.0103
328.15 K, c1 = 0.007462	0.0102
328.15 K, c1 = 0.00911	0.00996
328.15 K, c1 = 0.0107	0.00985
328.15 K, c1 = 0.01243	0.00963
328.15 K, c1 = 0.0147	0.00945
